As a reminder, the IC50 is the midpoint of a concentration-inhibition curve.

In one test the target is human P2X3 receptor (Homo sapiens (Human), UniProt P56373). Description: Evaluation of human P2X3 receptor inhibitory activity (Fluo-3 calcium fluorescence, FDSS 3000, ATP stimulation).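 Note: stimulus was 50 nM ATP with fluorescence followed for 3 min, and the response per well was peak post-ATP fluorescence divided by the reading at measurement start.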 It counts as cell-based. Conditions: C6BU-1 cells stably expressing human P2X3 receptor.
human P2X3 receptor, sequence (P56373 whole entry): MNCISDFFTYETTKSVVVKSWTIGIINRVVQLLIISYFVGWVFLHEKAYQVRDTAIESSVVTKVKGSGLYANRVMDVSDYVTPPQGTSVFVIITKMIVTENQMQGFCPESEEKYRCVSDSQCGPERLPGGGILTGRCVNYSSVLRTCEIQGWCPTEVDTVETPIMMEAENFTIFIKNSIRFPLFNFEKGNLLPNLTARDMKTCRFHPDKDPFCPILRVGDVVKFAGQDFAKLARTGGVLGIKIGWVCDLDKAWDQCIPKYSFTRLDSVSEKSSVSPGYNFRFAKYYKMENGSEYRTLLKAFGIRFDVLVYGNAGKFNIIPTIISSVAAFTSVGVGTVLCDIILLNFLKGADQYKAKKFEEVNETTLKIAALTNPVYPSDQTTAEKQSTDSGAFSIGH
For the molecule `COC(=O)[C@@H](C)Cn1c(=O)[nH]/c(=N\c2ccc(C3CC3)cc2)n(Cc2ccc(C)cc2)c1=O` [Compound I-1460], the IC50 came to 272 nM.

As for `O=c1[nH]/c(=N\c2ccc(OC3CCC3)cc2)n(Cc2ccc(Cl)cc2)c(=O)n1CC(CO)CO` [Compound I-1974], the IC50 stood at 7 nM.

Regarding `CCn1c(=O)[nH]/c(=N\c2ccc(Oc3cc(F)cc(C(=O)O)c3)cc2)n(Cc2ccc(Cl)cc2)c1=O` [Compound I-2223], the half-inhibitory concentration (IC50) came out at 6 nM.

Consider `CCn1c(=O)[nH]/c(=N\c2ccc(Oc3ccc(C(=O)OC)nc3)cc2)n(Cc2ccc(Cl)cc2)c1=O` [Compound I-2105], for which the half-inhibitory concentration (IC50) stood at 1 nM.

`O=C(O)Cn1c(=O)[nH]/c(=N\c2ccc(OC3CCC3)cc2)n(Cc2ccc(Cl)cc2)c1=O` [Compound I-1943]: the IC50 is 258 nM.

On to `CCOC(=O)CCn1c(=O)[nH]/c(=N\c2ccc(Oc3ccncc3)cc2)n(Cc2ccc(Cl)cc2)c1=O` [Compound I-1205], for which the IC50 came out at 2 nM.

`CCCCOc1ccc(/N=c2\[nH]c(=O)n(C[C@H](C)C(=O)OC)c(=O)n2Cc2ccc(Cl)cc2)cc1` [Compound I-0814]: the IC50 came out at 17 nM.

For the molecule `Cc1ccc(Cn2c(=O)[nH]c(=O)[nH]/c2=N\c2ccc(Oc3ccnc(C(=O)O)c3)cc2)cc1` [Compound I-2140], the IC50 is 7 nM.

For `CCOC(=O)CCCn1c(=O)[nH]/c(=N\c2ccc(O)cc2)n(Cc2ccc(C)cc2)c1=O` [Compound I-1239], the IC50 was 732 nM.

In the case of `COC(=O)NCCn1c(=O)[nH]/c(=N\c2ccc(OC(C)C)c(F)c2)n(Cc2ccc(Cl)cc2)c1=O` [Compound I-0607], the IC50 amounted to 12 nM.

Consider `COC(=O)[C@@H](C)Cn1c(=O)[nH]/c(=N\c2cccc(C(C)C)c2)n(Cc2ccc(Cl)cc2)c1=O` [Compound I-0777], for which the IC50 was determined as 116 nM.

Turning to `CCn1c(=O)[nH]/c(=N\c2ccc(Oc3cc(C(=O)O)on3)cc2)n(Cc2ccc(Cl)cc2)c1=O` [Compound I-1963], the IC50 came to 13 nM.

`Cc1ccc(Cn2c(=O)n(CCC(=O)O)c(=O)[nH]/c2=N\c2ccc(OC(C)C)cc2F)cc1` [Compound I-2049]: the IC50 was found to be 85 nM.

`CC[C@H](CC(=O)OC)n1c(=O)[nH]/c(=N\c2ccc(OC(C)C)c(C)c2)n(Cc2ccc(Cl)cc2)c1=O` [Compound I-0783]: the IC50 was found to be 65 nM.

For the molecule `CC(C)Oc1ccc(/N=c2\[nH]c(=O)n(C3C[C@H]3C(=O)O)c(=O)n2Cc2ccc(Cl)cc2)cc1F` (stereo partly drawn) [Compound I-0674], the IC50 was determined as 126 nM.

Regarding `COC(=O)CCCCn1c(=O)[nH]/c(=N\c2ccc(OC(C)C)c(Cl)c2)n(Cc2ccc(Cl)cc2)c1=O` [Compound I-2182], the IC50 stood at 3 nM.

As to `CNC(=NC#N)NCCCn1c(=O)[nH]/c(=N\c2ccc(OC(C)C)c(F)c2)n(Cc2ccc(Cl)cc2)c1=O` [Compound I-0615], the half-inhibitory concentration (IC50) was determined as 5 nM.

`COC(=O)Cn1cccc(Cn2c(=O)[nH]/c(=N\c3ccc(OC(C)C)c(C)c3)n(Cc3ccc(Cl)cc3)c2=O)c1=O` [Compound I-0757]: the IC50 stood at 35 nM.

Consider `CCc1nc2ccc(/N=c3\[nH]c(=O)n(CCCCC(=O)OC)c(=O)n3Cc3ccc(Cl)cc3)cc2s1` [Compound I-2183], for which the IC50 worked out at 1 nM.

Consider `C[C@@H](Oc1ccc(/N=c2\[nH]c(=O)n(CCC(N)=O)c(=O)n2Cc2ccc(Cl)cc2)cc1)C(F)(F)F` [Compound I-1956], for which the IC50 turned out to be 34 nM.

For the molecule `COCCOc1ccc(/N=c2\[nH]c(=O)n(C[C@H](C)C(=O)O)c(=O)n2Cc2ccc(Cl)cc2)cc1` [Compound I-0748], the IC50 was 295 nM.

As to `CCOC(=O)CCn1c(=O)[nH]/c(=N\c2ccc(OC(C)C)c(F)c2)n(CC2CCCCCCC2)c1=O` [Compound I-1911], the IC50 stood at 253 nM.

On to `O=C(O)CCn1c(=O)[nH]/c(=N\c2ccc(Oc3ccnc(O)c3)cc2)n(Cc2ccc(Cl)cc2)c1=O` [Compound I-1441], for which the IC50 was 9 nM.

With `Cc1ccc(Cn2c(=O)n(C[C@H](C)C(=O)O)c(=O)[nH]/c2=N\c2ccc(CC(C)C)nc2)cc1` [Compound I-1359], the IC50 was determined as 724 nM.

On to `CC(C)Oc1ccc(/N=c2\[nH]c(=O)n(CC(=O)NN)c(=O)n2Cc2ccc(Cl)cc2)cc1F` [Compound I-0635], for which the IC50 was 19 nM.

Turning to `Cc1ccc(Cn2c(=O)n(CCCCC(=O)O)c(=O)[nH]/c2=N\c2ccc3nc(C)sc3c2)cc1` [Compound I-2158], the IC50 was 29 nM.

Consider `CCCn1c(=O)[nH]/c(=N\c2ccc(Oc3ccnc(C(=O)OC)c3)cc2)n(Cc2ccc(Cl)cc2)c1=O` [Compound I-2160], for which the IC50 is 3 nM.

The test is the same for the next values; noted with them: C6BU-1 cells stably expressing human P2X3 receptor, Fluo-3 fluorescence, FDSS 3000.
With `COC(=O)[C@@H](C)Cn1c(=O)[nH]/c(=N\c2ccc(Oc3ccccc3)cc2)n(Cc2ccc(C)cc2)c1=O` [Compound I-0990], the IC50 turned out to be 51 nM.

With `Cc1nc2ccc(/N=c3\[nH]c(=O)n(CCC(CO)CO)c(=O)n3Cc3ccc(Cl)cc3)cc2s1` [Compound I-1853], the IC50 turned out to be 4 nM.

In the case of `C[C@@H](Cn1c(=O)[nH]/c(=N\c2ccc(C=C3CCCC3)cc2)n(Cc2ccc(Cl)cc2)c1=O)C(=O)O` [Compound I-1099], the IC50 was 70 nM.

As to `COc1ccc(Oc2ccc(/N=c3\[nH]c(=O)n(CC(=O)NCCO)c(=O)n3Cc3ccc(Cl)cc3)cc2)cn1` [Compound I-1858], the IC50 was found to be 5 nM.

Consider `CCOC(=O)CCn1c(=O)[nH]/c(=N\c2ccc(O[C@H](C)CC)c(Cl)c2)n(Cc2ccc(C)cc2)c1=O` [Compound I-1020], for which the IC50 was found to be 6 nM.

As for `Cc1ccc(Cn2c(=O)n(C[C@H](C)C(=O)O)c(=O)[nH]/c2=N\c2ccc(OC(F)(F)F)cc2)cc1` [Compound I-1002], the IC50 was found to be 298 nM.

In the case of `CCc1cc2cc(/N=c3\[nH]c(=O)n(C[C@H](C)C(=O)O)c(=O)n3Cc3ccc(Cl)cc3)ccc2o1` [Compound I-1766], the IC50 was determined as 18 nM.

For the molecule `Cc1cc(/N=c2\[nH]c(=O)n(C3CCN(CC(=O)O)CC3)c(=O)n2Cc2ccc(Cl)cc2)ccc1OC(C)C` [Compound I-1649], the IC50 amounted to 285 nM.

Take `Cc1ccc(Cn2c(=O)n(CCC(=O)O)c(=O)[nH]/c2=N\c2nc3ccccc3s2)cc1` [Compound I-1674]: the IC50 came to 971 nM.

For `Cc1ccc(Cn2c(=O)n(C[C@H](C)C(=O)O)c(=O)[nH]/c2=N\c2ccc(C=C3CCCC3)cc2)cc1` [Compound I-1098], the IC50 was found to be 74 nM.

For `Cc1nc2ccc(/N=c3\[nH]c(=O)n(C[C@H]4COC(C)(C)O4)c(=O)n3Cc3ccc(Cl)cc3)cc2s1` [Compound I-1603], the IC50 turned out to be 5 nM.

Regarding `COC(=O)[C@@H](C)Cn1c(=O)[nH]/c(=N\c2ccc(C3=CCCCC3)cc2)n(Cc2ccc(C)cc2)c1=O` [Compound I-1078], the IC50 amounted to 218 nM.

As for `C=Cc1ccc(Cn2c(=O)n(C[C@H](C)C(=O)O)c(=O)[nH]/c2=N\c2ccc(OC(C)C)cc2)cc1` [Compound I-1139], the half-maximal inhibitory concentration (IC50) came out at 52 nM.

Take `C/C=C\c1ccc(Cn2c(=O)n(C[C@H](C)C(=O)O)c(=O)[nH]/c2=N\c2ccc(OC(C)C)cc2)cc1` [Compound I-1150]: the half-maximal inhibitory concentration (IC50) was found to be 551 nM.

For `CC(C)n1cnc2cc(/N=c3\[nH]c(=O)n([C@@H](C)[C@@H](C)C(=O)O)c(=O)n3Cc3ccc(Cl)cc3)ccc21` [Compound I-1772], the IC50 was 297 nM.

Regarding `COC(=O)[C@@H](C)Cn1c(=O)[nH]/c(=N\c2ccc(O[C@@H](C)C(F)(F)F)cc2)n(Cc2ccc(Cl)cc2)c1=O` [Compound I-0943], the IC50 came out at 61 nM.

The test is the same for the next values; noted with them: human P2X3 receptor, Test Example 1.
Regarding `CCOC(=O)Cn1c(=O)[nH]/c(=N\c2ccc(Oc3nc(C)ns3)cc2)n(Cc2ccc(Cl)cc2)c1=O` [Compound I-2570], the IC50 worked out at 5 nM.

For the molecule `Cc1nsc(Oc2ccc(/N=c3\[nH]c(=O)n(CC(=O)O)c(=O)n3Cc3ccc(Cl)cc3)cc2)n1` [Compound I-2579], the IC50 is 71 nM.

On to `Cn1c(=O)[nH]/c(=N\c2ccc(Oc3cncc(C(N)=O)n3)cc2)n(Cc2ccc(Cl)cc2)c1=O` [Compound I-2471], for which the IC50 was 5 nM.

For the molecule `CC[C@@H](C)n1c(=O)[nH]/c(=N\c2ccc(Oc3ccnc(C(=O)O)c3)cc2)n(Cc2ccc(Cl)cc2)c1=O` [Compound I-2482], the IC50 worked out at 11 nM.

Consider `CCn1c(=O)[nH]/c(=N\c2ccc(Nc3ccncc3)cc2)n(Cc2ccc(C)cc2)c1=O` [Compound I-2569], for which the IC50 amounted to 162 nM.

For `Cc1nc(-c2ccc(/N=c3\[nH]c(=O)n(C[C@H](C)C(=O)O)c(=O)n3Cc3ccc(Cl)cc3)cc2)no1` [Compound I-1530], the IC50 is 93 nM.

Consider `COC(=O)[C@@H](C)Cn1c(=O)[nH]/c(=N\c2ccc(OCC3CC3)cc2)n(Cc2ccc(C)cc2)c1=O` [Compound I-0834], for which the IC50 was 18 nM.

Take `NC(=O)Cn1c(=O)[nH]/c(=N\c2ccc(Oc3cnsn3)cc2)n(Cc2ccc(Cl)cc2)c1=O` [Compound I-2675]: the IC50 was found to be 13 nM.

With `O=c1[nH]/c(=N\c2ccc(Oc3cccc(F)n3)cc2)n(Cc2ccc(Cl)cc2)c(=O)n1C[C@@H](O)CO` [Compound I-2525], the IC50 amounted to 10 nM.

With `CCn1c(=O)[nH]/c(=N\c2ccc(Oc3cc(C#N)ccn3)cc2)n(Cc2ccc(C)cc2)c1=O` [Compound I-2300], the IC50 was determined as 3 nM.

With `CCOC(=O)CCn1c(=O)[nH]/c(=N\c2ccc3nc(CC)sc3c2)n(Cc2ccc(C)cc2)c1=O` [Compound I-1506], the IC50 stood at 2 nM.

Consider `CCCOc1ccc(/N=c2\[nH]c(=O)n([C@H](C)CC(=O)O)c(=O)n2Cc2ccc(C)cc2)cc1Cl` [Compound I-0880], for which the IC50 worked out at 49 nM.

As for `O=C(Cn1c(=O)[nH]/c(=N\c2ccc(Oc3ncns3)cc2)n(Cc2ccc(Cl)cc2)c1=O)NCCO` [Compound I-2674], the half-inhibitory concentration (IC50) worked out at 5 nM.

`Cc1nsc(Oc2ccc(/N=c3\[nH]c(=O)n(CC(CO)CO)c(=O)n3Cc3ccc(F)cc3)cc2)n1` [Compound I-2605]: the half-inhibitory concentration (IC50) came to 14 nM.

For the molecule `CCc1cc2cc(/N=c3\[nH]c(=O)n(C[C@H](O)CO)c(=O)n3Cc3ccc(Cl)cc3)ccc2o1` [Compound I-2315], the IC50 worked out at 17 nM.

As to `O=C(O)c1cc(Oc2ccc(/N=c3\[nH]c(=O)n(C4CC4)c(=O)n3Cc3ccc(Cl)cc3)cc2)ccn1` [Compound I-2330], the IC50 came to 7 nM.

For the molecule `O=c1[nH]/c(=N\c2ccc(Oc3ccsn3)cc2)n(Cc2ccc(Cl)cc2)c(=O)n1CC(O)CO` (stereo not drawn) [Compound I-2514], the IC50 was found to be 11 nM.

(Values after patent US9718790B2, “Triazine derivative and pharmaceutical composition having an analgesic activity comprising the same” (SHIONOGI & CO., LTD., priority 2010, dated 2017).)
